{"source": "patent US5153124A", "about": "“Hydroxyl-ML-236B derivatives, their preparation and use” (Sankyo Company Limited, priority 1985, dated 1992)", "data": [{"tested_on": "cholesterol biosynthesis", "experiment": "Inhibitory activity against cholesterol biosynthesis (method of J. Biol. Chem. 234, 2835 (1959))", "type": "biochemical", "details": "method of Journal of Biological Chemistry, 234, 2835 (1959)", "source_text": "The inhibitory activities of certain of the compounds of the invention, in terms of the concentration in μg/ml required to inhibit cholesterol biosynthesis by 50% [measured by the method described in the Journal of Biological Chemistry, 234, 2835 (1959)], are as follows: […]", "units": {"concentration required to inhibit cholesterol biosynthesis by 50%": "µg/mL"}, "values": [{"smiles": "CC[C@H](C)C(=O)O[C@H]1CCC=C2C=C[C@H](C)[C@H](CC[C@@H]3C[C@@H](O)CC(=O)O3)[C@H]21", "note": "[ML-236B lactone, reference compound]", "concentration required to inhibit cholesterol biosynthesis by 50%": 0.010}, {"smiles": "CC(O)[C@H](C)C(=O)O[C@H]1C[C@H](O)C=C2C=C[C@H](C)[C@H](CC[C@@H](O)C[C@@H](O)CC(=O)O)[C@H]21", "note": "(single isomer, unassigned) [Sodium 3\",6'β-dihydroxy-ML-236B carboxylate, Substance B]", "concentration required to inhibit cholesterol biosynthesis by 50%": 0.024}, {"smiles": "CC(O)[C@H](C)C(=O)O[C@H]1CCC=C2C=C[C@H](C)[C@H](CC[C@@H](O)C[C@@H](O)CC(=O)O)[C@H]21", "note": "(some centres unmarked) [Sodium 3\"-hydroxy-ML-236B carboxylate]", "concentration required to inhibit cholesterol biosynthesis by 50%": 0.0032}, {"smiles": "CC(O)[C@H](C)C(=O)O[C@H]1C[C@H](O)C=C2C=C[C@H](C)[C@H](CC[C@@H](O)C[C@@H](O)CC(=O)O)[C@H]21", "note": "(single isomer, unassigned) [Sodium 3\",6'β-dihydroxy-ML-236B carboxylate, Substance A]", "concentration required to inhibit cholesterol biosynthesis by 50%": 0.0018}, {"smiles": "CC(O)[C@H](C)C(=O)O[C@H]1CCC=C2C=C[C@H](C)[C@H](CC[C@@H]3C[C@@H](O)CC(=O)O3)[C@H]21", "note": "(some centres unmarked) [3\"-hydroxy-ML-236B lactone, 3\"-Hydroxy-ML-236B lactone]", "concentration required to inhibit cholesterol biosynthesis by 50%": 0.039}]}]}
